The results in this text go back to patent US20230157952A1, “METHOD FOR IMPROVING THE STABILITY OF A PHARMACEUTICAL COMPOSITION COMPRISING A HIGH PENETRATION DRUG, AND THE PHARMACEUTICAL COMPOSITION OBTAINED THEREFROM” (Techfields Inc., priority 2020, published 2023).

Data set [1] in a line: Stability of the pure HPDs (dry solid) at 25° C./RH 60%. The class given is physicochemical. Particulars: for Purity: pure HPD, 25° C./RH 60%.
Data set [2] in a line: Effect of pH value on the stability of the solution (purity). Format: physicochemical. Particulars: for Purity(%) from day 0-28 / Purity(%) from day 0-14: 25° C.
Setting [3] is: day 28, pH 1.0, 7% solution in water.
Where [4] appears, read: day 28, pH 2.0, 7% solution in water.
Where [5] appears, read: day 28, pH 3.0, 7% solution in water.
Where [6] appears, read: day 28, pH 3.7, 7% solution in water.
Where [7] appears, read: day 28, pH 5.0, 7% solution in water.
Where [8] appears, read: day 28, pH 6.0, 7% solution in water.
Where [9] appears, read: day 28, pH 7.0, 7% solution in water.
[10] abbreviates: day 28, pH 8.0, 7% solution in water.
[11] abbreviates: day 28, pH 1.0, 7% in 25% ethanol.
Where [12] appears, read: day 28, pH 2.0, 7% in 25% ethanol.
Setting [13] is: day 28, pH 3.0, 7% in 25% ethanol.
The mark [14] stands for this setting: day 28, pH 3.7, 7% in 25% ethanol.
Setting [15] is: day 28, pH 4.0, 7% in 25% ethanol.
The mark [16] stands for this setting: day 28, pH 4.3, 7% in 25% ethanol.
The mark [17] stands for this setting: day 28, pH 4.6, 7% in 25% ethanol.
The mark [18] stands for this setting: day 28, pH 5.0, 7% in 25% ethanol.
Where [19] appears, read: day 28, pH 6.0, 7% in 25% ethanol.
Where [20] appears, read: day 28, pH 7.0, 7% in 25% ethanol.
[21] abbreviates: day 28, pH 8.0, 7% in 25% ethanol.

As to `Br.CCN(CC)CCOC(=O)C(C)c1ccc2cc(OC)ccc2c1` (racemic) [C-2, 2-(diethylamino)ethyl (R,S)-2-(6-methoxy-2-naphthyl) propionate•HBr salt], the Purity worked out at 98.9 ± 0.1 in data set [1] (3 month, listed as A-1-4); 98.6 ± 0.4 in data set [1] (6 month, listed as A-1-4); 98.1 ± 0.1 in data set [1] (9 month); 97.9 ± 0.3 in data set [1] (18 month); 97.7 ± 0.4 in data set [1] (24 month); 98.0 ± 0.4 in data set [1] (24 month, listed as A-1-4). In addition, the Purity in data set [1] (Day 0, listed as A-1-4) stood at 98.6 ± 0.3. The “Purity(%) from day 0-28” value in data set [2] (setting [3]) is listed as 69.7 ± 0.3%; in data set [2] (setting [4]) it was 80.1 ± 0.3%; in data set [2] (setting [5]), 90.7 ± 0.3%; in data set [2] (setting [6]) it was 97.1 ± 0.3%; in data set [2] (setting [7]), 96.5 ± 0.3%; in data set [2] (setting [8]) it was 89.0 ± 0.4%. Moreover, the “Purity(%) from day 0-28” value is 65.5 ± 0.3% in data set [2] (setting [9]) and 45.5 ± 0.5% in data set [2] (setting [10]).

Turning to `CCN(CC)CCOC(=O)[C@H](C)c1ccc2cc(OC)ccc2c1.O=C(O)CC(O)(CC(=O)O)C(=O)O` (racemic) [C-3, 2-(diethylamino)ethyl (R,S)-2-(6-methoxy-2-naphthyl) propionate•citric acid salt], the Purity in data set [1] (12 month) was found to be 98.1 ± 0.3; in data set [1] (18 month), 97.9 ± 0.4; in data set [1] (24 month) it was 97.8 ± 0.3. Further, the “Purity(%) from day 0-28” value is listed as 68.2 ± 0.4% in data set [2] (setting [3]); 80.1 ± 0.3% in data set [2] (setting [4]); 90.3 ± 0.3% in data set [2] (setting [5]); 96.8 ± 0.2% in data set [2] (setting [6]); 97.1 ± 0.2% in data set [2] (day 28, pH 4.0, 7% solution in water); 97.1 ± 0.3% in data set [2] (day 28, pH 4.3, 7% solution in water). For the same molecule, the “Purity(%) from day 0-28” value in data set [2] (day 28, pH 4.6, 7% solution in water) came to 97.0 ± 0.3%; in data set [2] (setting [7]), 96.0 ± 0.3%; in data set [2] (setting [8]), 88.4 ± 0.3%; in data set [2] (setting [9]) it was 55.8 ± 0.4%; in data set [2] (setting [10]), 35.8 ± 0.5%.

For `CC(C)Cc1ccc([C@@H](C)C(=O)OCCN(C)C)cc1.Cl` (racemic) [C-5, 2-(dimethylamino)ethyl (R,S)-2-(p-isobutylphenyl)propionate•HCl salt], the Purity in data set [1] (3 month) was determined as 98.1 ± 0.2; in data set [1] (6 month), 98.1 ± 0.3; in data set [1] (12 month), 98.0 ± 0.4; in data set [1] (18 month), 97.9 ± 0.1; in data set [1] (24 month), 97.7 ± 0.4. Also, the “Purity(%) from day 0-28” value in data set [2] (setting [11]) is reported as 65.3 ± 0.3%; in data set [2] (setting [12]) it was 77.4 ± 0.3%; in data set [2] (setting [13]), 88.4 ± 0.2%; in data set [2] (setting [14]) it was 95.7 ± 0.3%; in data set [2] (setting [15]), 96.6 ± 0.4%; in data set [2] (setting [16]), 96.8 ± 0.3%. In addition, the “Purity(%) from day 0-28” value is recorded as 96.8 ± 0.2% in data set [2] (setting [17]); 93.1 ± 0.4% in data set [2] (setting [18]); 85.3 ± 0.2% in data set [2] (setting [19]); 47.1 ± 0.3% in data set [2] (setting [20]); 34.9 ± 0.5% in data set [2] (setting [21]).

As to `CCCCN(CCCC)CCOC(=O)C(C)c1ccc(CC(C)C)cc1.Cl` (racemic) [C-6, 2-(dibutylamino)ethyl (R,S)-2-(p-isobutylphenyl)propionate•HCl salt], in data set [1] (24 month), the Purity is on record as 98.1 ± 0.2. For the same molecule, the “Purity(%) from day 0-28” value in data set [2] (setting [11]) was 68.4 ± 0.3%; in data set [2] (setting [12]) it was 79.2 ± 0.4%; in data set [2] (setting [13]), 91.2 ± 0.3%; in data set [2] (setting [14]) it was 96.9 ± 0.2%; in data set [2] (setting [15]), 97.3 ± 0.2%; in data set [2] (setting [16]) it was 97.3 ± 0.3%. The “Purity(%) from day 0-28” value in data set [2] (setting [17]) worked out at 97.1 ± 0.3%; in data set [2] (setting [18]), 94.5 ± 0.3%; in data set [2] (setting [19]), 89.2 ± 0.4%; in data set [2] (setting [20]), 51.5 ± 0.3%; in data set [2] (setting [21]), 35.1 ± 0.3%.

With `CCN(CC)CCOC(=O)c1ccccc1OC(C)=O.O=C(O)c1ccccc1` [A-2, 2-(diethylamino)ethyl acetylsalicylate•benzoic acid salt], the Purity in data set [1] (12 month) is reported as 97.9 ± 0.1; in data set [1] (18 month), 97.6 ± 0.2; in data set [1] (24 month), 97.1 ± 0.2. Moreover, the “Purity(%) from day 0-14” value in data set [2] (day 14, pH 1.0, 7% in water) was found to be 60.5 ± 0.3%; in data set [2] (day 14, pH 2.0, 7% in water) it was 79.7 ± 0.4%; in data set [2] (day 14, pH 3.0, 7% in water), 91.0 ± 0.2%; in data set [2] (day 14, pH 3.7, 7% in water) it was 94.1 ± 0.2%; in data set [2] (day 14, pH 4.0, 7% in water) it was 95.0 ± 0.3%; in data set [2] (day 14, pH 4.3, 7% in water), 95.0 ± 0.4%. Moreover, the “Purity(%) from day 0-14” value in data set [2] (day 14, pH 4.6, 7% in water) is 94.4 ± 0.3%; in data set [2] (day 14, pH 5.0, 7% in water), 87.3 ± 0.2%; in data set [2] (day 14, pH 6.0, 7% in water), 78.3 ± 0.3%; in data set [2] (day 14, pH 7.0, 7% in water) it was 56.0 ± 0.4%; in data set [2] (day 14, pH 8.0, 7% in water) it was 17.7 ± 0.4%.

Take `CC(O)C(=O)O.CCN(CC)CCOC(=O)c1ccccc1OC(C)=O` [A-3, 2-(diethylamino)ethyl acetylsalicylate•lactic acid salt]: the Purity is given as 97.9 ± 0.2 in data set [1] (12 month), 97.3 ± 0.1 in data set [1] (18 month) and 96.8 ± 0.2 in data set [1] (24 month). Also, the “Purity(%) from day 0-14” value is 57.9 ± 0.4% in data set [2] (day 14, pH 1.0, 7% in water); 77.0 ± 0.4% in data set [2] (day 14, pH 2.0, 7% in water); 88.7 ± 0.2% in data set [2] (day 14, pH 3.0, 7% in water); 93.1 ± 0.3% in data set [2] (day 14, pH 3.7, 7% in water); 94.1 ± 0.4% in data set [2] (day 14, pH 4.0, 7% in water); 94.4 ± 0.2% in data set [2] (day 14, pH 4.3, 7% in water). For the same molecule, the “Purity(%) from day 0-14” value in data set [2] (day 14, pH 4.6, 7% in water) is reported as 94.1 ± 0.2%; in data set [2] (day 14, pH 5.0, 7% in water), 85.6 ± 0.4%; in data set [2] (day 14, pH 6.0, 7% in water), 78.3 ± 0.3%; in data set [2] (day 14, pH 7.0, 7% in water), 55.1 ± 0.3%; in data set [2] (day 14, pH 8.0, 7% in water), 15.0 ± 0.4%.

As for `CCCCC(=O)O.CCN(CC)CCOC(=O)c1ccccc1OC(C)=O` [A-4, 2-(diethylamino)ethyl acetylsalicylate•valeric acid], the Purity amounted to 98.6 ± 0.1 in data set [1] (6 month); 98.0 ± 0.2 in data set [1] (12 month); 97.9 ± 0.2 in data set [1] (18 month); 97.2 ± 0.1 in data set [1] (24 month); 98.6 ± 0.2 in data set [1] (Day 0). In addition, the “Purity(%) from day 0-14” value in data set [2] (day 14, pH 1.0, 7% in water) is reported as 58.1 ± 0.3%; in data set [2] (day 14, pH 2.0, 7% in water), 77.3 ± 0.2%; in data set [2] (day 14, pH 3.0, 7% in water), 87.5 ± 0.3%; in data set [2] (day 14, pH 3.7, 7% in water), 93.2 ± 0.3%; in data set [2] (day 14, pH 4.0, 7% in water), 94.2 ± 0.4%; in data set [2] (day 14, pH 4.3, 7% in water) it was 94.7 ± 0.2%. Besides, the “Purity(%) from day 0-14” value in data set [2] (day 14, pH 4.6, 7% in water) came to 94.0 ± 0.2%; in data set [2] (day 14, pH 5.0, 7% in water), 85.5 ± 0.4%; in data set [2] (day 14, pH 6.0, 7% in water) it was 77.3 ± 0.3%; in data set [2] (day 14, pH 7.0, 7% in water) it was 52.5 ± 0.4%; in data set [2] (day 14, pH 8.0, 7% in water), 15.2 ± 0.4%.

For the molecule `CC(C)Cc1ccc([C@@H](C)C(=O)OC[C@@H]2CCCN2)cc1.Cl` [C-7, 2-pyrrolidinemethyl (R,S)-2-(p-isobutylphenyl)propionate•HCl salt], the results for the Purity in data set [1] (9 month), in data set [1] (18 month) and in data set [1] (24 month) were 98.1 ± 0.1, 98.0 ± 0.3 and 97.9 ± 0.1, respectively. Also, the “Purity(%) from day 0-28” value in data set [2] (setting [11]) was 66.8 ± 0.3%; in data set [2] (setting [12]), 86.0 ± 0.4%; in data set [2] (setting [13]), 86.0 ± 0.3%; in data set [2] (setting [14]), 94.3 ± 0.3%; in data set [2] (setting [15]), 95.8 ± 0.3%; in data set [2] (setting [16]), 96.5 ± 0.4%. For the same molecule, the “Purity(%) from day 0-28” value came out at 96.2 ± 0.3% in data set [2] (setting [17]); 89.3 ± 0.2% in data set [2] (setting [18]); 86.2 ± 0.3% in data set [2] (setting [19]); 48.0 ± 0.3% in data set [2] (setting [20]); 34.3 ± 0.4% in data set [2] (setting [21]).

As for “H-Tyr-Gly-Gly-Phe-Met-OCH(CH3)2.HCl [U-2]”, the Purity is recorded as 98.9 ± 0.3 in data set [1] (3 month); 98.6 ± 0.2 in data set [1] (6 month); 98.6 ± 0.3 in data set [1] (9 month); 98.5 ± 0.2 in data set [1] (12 month); 98.5 ± 0.2 in data set [1] (18 month); 98.4 ± 0.2 in data set [1] (24 month). Also, the Purity in data set [1] (Day 0) came out at 98.9 ± 0.1. Moreover, in data set [1] (room temperature (25° C./RH 60%)), the “Stability of the pure powder” value is recorded as “very stable”. The “pH at which the solution is stable” value in data set [2] (5% solution in 25% ethanol at 25° C.) is 3-6. Further, the “Time the solution can be stored at room temperature” value in data set [2] (5% solution in 25% ethanol, pH 3-6) is “about 1 year”.
